# Where two headings read alike, the source gives them in different places.
# Test: in vivo
# Set-up: species or system female C3H/HeN mice
# Settings: mouse; for concentration at 6 h: 6h after dose; for concentration at 8 h: 8h after dose; for concentration at 14 h: 14h after dose; for concentration at 24 h: 24 h after dose; for concentration at 48 h: 48 h after dose; for concentration at 5 min: 5 min after dose; for concentration at 0.25 h: 15 min after dose; for concentration at 0.5 h: 0.5h after dose; for concentration at 0.75 h: 0.75h after dose; for concentration at 1 h: 1h after dose; for Vd: read-out: Vdss; for AUC(0-inf): mean level data
# Protocol: Groups of female C3H/HeN mice received the product by the intravenous route as a bolus at a dose level of 40 mg.kg^-1 equivalent to 120 mg.m^-2. Blood and brain samples were obtained from all dosed animals sacrificed at intervals up to 72 hours post dose. Brain and corresponding plasma samples have been assayed for product Ia content by an LC-MS/MS assay.
# • Formulation: 2.25 mg.ml^-1 solution containing 5 % Polysorbate 80, 5 % ethanol and 90 % of an aqueous 5 % glucose solution. […]
# • Sampling : Blood by cardiac puncture and liver and brain by dissection after CO2 sacrifice • Sample Times : at 2, 5, 15, 30, 45 minutes, 1, 2, 4, 6, 8, 14, 24, 48 and 72 hours post dose.
# Whole blood was collected into heparinised tubes and corresponding plasma samples were obtained by centrifugation and frozen immediately at -20°C. Tissues were blotted, weighed and frozen immediately at -20°C. All samples were dispatched frozen for analysis. Upon receipt, samples were stored frozen at approximately -18°C pending analysis.
# • Detection: LC-MS/MS (Sciex API III plus) in turbo-ionspray mode
# The following MS conditions were applied:
# Column: 75 x 4.6 mm Supelcosil ABZ plus (3 µm). Mobile phase: Acetonitrile/methanol/ammonium acetate (10mM); 40/25/35 v/v/v. Flow rate : 1 ml.min^-1. Temperature : Ambient. Extraction : Plasma: Add 100 µl of acetonitrile to sample (50 µl). Vortex, centrifuge, remove supernatant, add 100 µl of mobile phase and inject 150 µl. Brain : Add 100 µl of acetonitrile to homogenised sample (100 mg of a 1:1 w/w brain with water homogenate) and vortex. Add 1ml of diethyl ether, vortex, centrifuge, remove organic layer and dry under N2. Reconstitute in 200 µl of mobile phase and inject 150 µl. Calibration standards: Plasma : Nine at concentrations of 5, 10, 20, 50, 100, 200, 300, 400 & 500 ng.ml^-1 (product Ia). Prepared by adding suitable aliquots of the product (concentrations = 0.1, 1 or 10 µg.ml^-1) in ethanol to 0.5 ml aliquots of mouse plasma. Each sample was vortexed following drug addition; a 50 µl aliquot was then removed for assay. Brain : Eleven at concentrations of 10, 20, 30, 100, 200, 300, 400, 500, 1000, 2500 & 5000 ng.g^-1 in homogenised mouse brain (1:1 w/w brain with water). Prepared by adding suitable aliquots of the product (concentrations = 1, 10 or 100 µg.ml^-1) in ethanol to 0.5, 1, 3 or 4 g of homogenised mouse brain. Each sample was vortexed following drug addition and a 100 mg aliquot was then removed for assay. Retention times: Drug; product Ia: ∼2.3 min. Extraction efficiency : Plasma : ca.58 % at 200 ng.ml^-1. Brain : ca.41 % at 500 ng.g^-1 and 39 % at 1000 ng.g^-1.
# A biexponential equation was fitted to the profiles using an interactive linear least-square algorithm as part of the SIPHAR package.
# AUC0-∞: Area under the plasma or brain concentration versus time curve from t=0 (start of infusion) to infinity. Initial T1/2: Initial (distribution) half-life. Terminal T1/2: Terminal (elimination) half-life (should be regarded as an estimate only being dependent on sampling frequency in the terminal phase and assay sensitivity). ClT: Total plasma clearance. Vdss: Volume of distribution at steady state. n.a.: Not applicable.
# [1] = brain, iv, 40 mg/kg, 40 mg.kg^-1 i.v., MEAN, read-out: Brain product Ic concentration
# [2] = brain, iv, 40 mg/kg, 40 mg.kg^-1 i.v., individual animals IV1-IV4, read-out: Brain product Ic concentration
# [3] = plasma, iv, 40 mg/kg, 40 mg.kg^-1 i.v., MEAN, read-out: Plasma product Ic concentration
# [4] = plasma, iv, 40 mg/kg, 40 mg.kg^-1 i.v., individual animals IV1-IV4, read-out: Plasma product Ic concentration
# [5] = plasma, iv, 40 mg/kg, Plasma+, calculated from values ≥ l.o.d. of 4 ng.ml^-1, 40 mg.kg^-1 i.v.
structure (smiles),measurement,setting,value
"CO[C@H]1C(=O)[C@]2(C)[C@@H](OC)C[C@H]3OC[C@@]3(OC(C)=O)[C@H]2[C@H](OC(=O)c2ccccc2)[C@]2(O)C[C@H](OC(=O)[C@H](O)[C@@H](NC(=O)OC(C)(C)C)c3ccccc3)C(C)=C1C2(C)C [product Ia, 4α-acetoxy-2α-benzoyloxy-5β,20-epoxy-1β-hydroxy-7β,10β-dimethoxy-9-oxo-11-taxen-13α-yl (2R,3S)-3 tert-butoxycarbonylamino-2-hydroxy-3-phenylpropionate]",concentration at 4 h,"brain, iv, 40 mg/kg, 40 mg.kg^-1 i.v., 4h after dose, individual animals IV1-IV4, read-out: Brain product Ic concentration",7910 ng/g
same,concentration at 6 h,[1],6430 ng/g
same,concentration at 8 h,[1],8250 ng/g
same,concentration at 8 h,[2],9070 ng/g
same,concentration at 14 h,[1],9130 ng/g
same,concentration at 14 h,[2],9620 ng/g
same,concentration at 24 h,[1],8670 ng/g
same,concentration at 24 h,[2],7900 ng/g
same,concentration at 48 h,[1],7720 ng/g
same,concentration at 48 h,[2],6660 ng/g
same,concentration at 72 h,"brain, iv, 40 mg/kg, 40 mg.kg^-1 i.v., 72 h after dose, MEAN, read-out: Brain product Ic concentration",5250 ng/g
same,concentration at 72 h,"brain, iv, 40 mg/kg, 40 mg.kg^-1 i.v., 72 h after dose, individual animals IV1-IV4, read-out: Brain product Ic concentration",5900 ng/g
same,concentration at 2 min,"brain, iv, 40 mg/kg, 40 mg.kg^-1 i.v., at 2 mins, read-out: brain level at the first sampling time",7900 ng/g
same,concentration at 72 h,"brain, iv, 40 mg/kg, 40 mg.kg^-1 i.v., at 72h, read-out: brain concentration at the last sampling time",5300 ng/g
same,concentration at 2 min,"plasma, iv, 40 mg/kg, 40 mg.kg^-1 i.v., 2 min after dose, MEAN, read-out: Plasma product Ic concentration",46900 ng/mL
same,concentration at 2 min,"plasma, iv, 40 mg/kg, 40 mg.kg^-1 i.v., 2 min after dose, individual animals IV1-IV4, read-out: Plasma product Ic concentration",53000 ng/mL
same,concentration at 5 min,[3],34300 ng/mL
same,concentration at 5 min,[4],36700 ng/mL
same,concentration at 0.25 h,[3],20500 ng/mL
same,concentration at 0.25 h,[4],20500 ng/mL
same,concentration at 0.5 h,[3],10400 ng/mL
same,concentration at 0.5 h,[4],10800 ng/mL
same,concentration at 0.75 h,[3],9090 ng/mL
same,concentration at 0.75 h,[4],7130 ng/mL
same,concentration at 1 h,[3],6550 ng/mL
same,concentration at 1 h,[4],6020 ng/mL
same,concentration at 4 h,"plasma, iv, 40 mg/kg, 40 mg.kg^-1 i.v., 4h after dose, MEAN, read-out: Plasma product Ic concentration",962 ng/mL
same,concentration at 4 h,"plasma, iv, 40 mg/kg, 40 mg.kg^-1 i.v., 4h after dose, individual animals IV1-IV4, read-out: Plasma product Ic concentration",1070 ng/mL
same,concentration at 6 h,[3],362 ng/mL
same,concentration at 6 h,[4],449 ng/mL
same,concentration at 8 h,[3],188 ng/mL
same,concentration at 8 h,[4],204 ng/mL
same,concentration at 14 h,[3],56 ng/mL
same,concentration at 14 h,[4],65 ng/mL
same,concentration at 24 h,[3],16 ng/mL
same,concentration at 48 h,[3],2 ng/mL
same,concentration at 4 h,"plasma, iv, 40 mg/kg, 40 mg.kg^-1 i.v., within 4h, read-out: plasma level",< 1000 ng/mL
same,half-life,"plasma, iv, 40 mg/kg, Plasma#, calculated from values ≥ b.l.q. of 20 ng.ml^-1, 40 mg.kg^-1 i.v., read-out: Initial T1/2 (converted)",12 min
same,half-life,"plasma, iv, 40 mg/kg, Plasma#, calculated from values ≥ b.l.q. of 20 ng.ml^-1, 40 mg.kg^-1 i.v., read-out: Terminal T1/2 (converted)",120 min
same,Vd,"plasma, iv, 40 mg/kg, Plasma#, calculated from values ≥ b.l.q. of 20 ng.ml^-1, 40 mg.kg^-1 i.v.",2.4 L/kg
same,AUC(0-inf),[5],30000 ng·h/mL
same,half-life,"plasma, iv, 40 mg/kg, Plasma+, calculated from values ≥ l.o.d. of 4 ng.ml^-1, 40 mg.kg^-1 i.v., read-out: Initial T1/2 (converted)",42 min
same,half-life,"plasma, iv, 40 mg/kg, Plasma+, calculated from values ≥ l.o.d. of 4 ng.ml^-1, 40 mg.kg^-1 i.v., read-out: Terminal T1/2 (converted)",372 min
same,Vd,[5],1.9 L/kg
same,AUC(0-inf),"plasma, iv, 40 mg/kg, calculated from values ≥ b.l.q. of 20 ng.ml^-1, 40 mg.kg^-1 i.v.",29800 ng·h/mL
same,half-life,"plasma, iv, 40 mg/kg, plasma, 40 mg.kg^-1 i.v., read-out: initial half-life",≤ 42 min
same,levels in the brain relative to those in the plasma,"on the basis of AUC0-∞ values, 40 mg.kg^-1 i.v.",about twenty times
same,concentration at 24 h,"plasma, iv, 40 mg.kg^-1 i.v., individual animals IV1-IV4, values flagged blq (below limit of accurate quantification, 20 ng.ml^-1), read-out: Plasma product Ic concentration",18 ng/mL
same,concentration at 48 h,"plasma, iv, 40 mg.kg^-1 i.v., individual animals IV1-IV4, blq = below 20 ng.ml^-1, n.d. = not detected (≤ l.o.d. of 4 ng.ml^-1), read-out: Plasma product Ic concentration",4 ng/mL
same,Cmax at 2 min,"plasma, iv, 40 mg.kg^-1 i.v., peak at 2 minutes, read-out: plasma peak level (mean)",46900 ng/mL
same,penetration of the blood brain barrier,post-i.v. administration,readily penetrate the blood brain barrier
